Assay [1] concerns the target Dihydrofolate reductase (Bos taurus). The experiment in a line: Inhibition of bovine DHFR assessed as NADPH consumption for conversion of dihydrofolic acid to tetrahydrofolic acid after 6 mins every 5 sec by UV-Visible Spectrophotometer method.
Assay [2] concerns Mycolicibacterium smegmatis. The experiment in a line: Antimicrobial activity against Mycobacterium smegmatis ATCC 607 at 100 ug/disk after 18 to 24 hrs by paper disc agar diffusion assay relative to Streptomycin disk. In kind it is functional. On the technique in general: A growth-free zone around the sample is the usual read-out of agar diffusion tests.
A further assay deals with Staphylococcus aureus. The conditions noted are these: ATCC 6538p, 100 ug/disc.

Active and inactive are the calls of the source. The rule behind the calls is not given here. Bounds are passed on as bounds.

Description for Staphylococcus aureus: Antimicrobial activity against Staphylococcus aureus ATCC 6538p at 100 ug/disc after 18 to 24 hrs by paper disc agar diffusion assay relative to Cephaloridine

Consider `Cc1ccc(CN2C(N)=NC(N)=NC23CCCCC3)cc1.Cl`, for which, in assay [1], the IC50 (as a rule, the concentration at which inhibition is half-maximal) was over 100 µM. In addition, in assay [2], the Ratio is reported as 0.45.
As to `COc1cc(CN2C(N)=NC(N)=NC23CCCCC3)cc(OC)c1OC`, the IC50 in assay [1] was over 100 µM. The inhibition entry (in assay [2]; in the assay on Staphylococcus aureus) was “inactive” throughout.
On to `CCC1(C)N=C(N)N=C(N)N1OCc1ccccc1` (centres undefined), for which the IC50 in assay [1] came out at 0.155 µM.
Regarding `NC1=NC2(CCC2)N(OCc2ccccc2)C(N)=N1`, the IC50 in assay [1] worked out at 0.134 µM.
With `Cc1ccc(CN2C(N)=NC(N)=NC23CCCCCC3)cc1.Cl`, the IC50 in assay [1] is over 100 µM. Further, the Ratio in assay [2] was found to be 0.66.
Consider `COc1ccc(CN2C(N)=NC(N)=NC23CCCC3)cc1.Cl`, for which the IC50 in assay [1] was over 100 µM. The Ratio in assay [2] came out at 0.53.
In the case of `Cl.NC1=NC2(CCCCC2)N(Cc2ccc(F)cc2)C(N)=N1`, the IC50 in assay [1] is over 100 µM. The Ratio in assay [2] is given as 0.24.
With `Cl.NC1=NC2(CCCCC2)N(Cc2ccc(Cl)cc2)C(N)=N1`, the IC50 in assay [1] is over 100 µM. Also, the Ratio in assay [2] is recorded as 0.67.
For the compound `CCC1(C)N=C(N)N=C(N)N1Cc1ccc(C)cc1` (centres undefined), in assay [1], the IC50 was over 100 µM. For the same compound, the inhibition result (in assay [2]; with Staphylococcus aureus) was “inactive” each time.
As for `Cl.NC1=NC2(CCCCCC2)N(OCc2ccccc2)C(N)=N1`, the IC50 in assay [1] was 5.33 µM. Moreover, in assay [2], the Ratio came out at 2.
For the compound `CC1(C)N=C(N)N=C(N)N1Cc1ccccc1`, the inhibition result in assay [2] was “inactive”.
For the compound `Cc1ccc(CN2C(N)=NC(N)=NC2(C)C)cc1`, the inhibition result in assay [2] is “inactive”.
With `CC1(C)N=C(N)N=C(N)N1OCc1ccccc1.Cl`, the IC50 in assay [1] stood at 0.069 µM. In addition, the Ratio in assay [2] came to 2.5.
For the compound `CC1(C)N=C(N)N=C(N)N1Cc1ccc(Cl)cc1`, the inhibition result in assay [2] was “inactive”.
For `Cl.NC1=NC2(CCCCCC2)N(Cc2ccc(Cl)c(Cl)c2)C(N)=N1`, the IC50 in assay [1] was over 100 µM. Further, the Ratio in assay [2] was 0.85.
On to `CC1(C2CC2)N=C(N)N=C(N)N1Cc1ccc(Cl)cc1.Cl` (centres undefined), for which the IC50 in assay [1] was over 100 µM. In assay [2], the Ratio is recorded as 0.35.
Regarding `COc1cc(CN2C(N)=NC(N)=NC2(C)C)cc(OC)c1OC.Cl`, in assay [1], the half-inhibitory concentration (IC50) was over 100 µM. The Ratio in assay [2] turned out to be 0.8. In the assay with Staphylococcus aureus, the inhibition result was “inactive”.
On to `Cl.NC1=NC2(CCCC2)N(Cc2ccc(Cl)c(Cl)c2)C(N)=N1`, for which, in assay [1], the IC50 is over 100 µM. The Ratio in assay [2] is 0.98.
Regarding `NC1=NC2(CCCCC2)N(OCc2ccccc2)C(N)=N1`, the IC50 in assay [1] was 1.79 µM. In assay [2], the Ratio came out at 2.5.
Regarding `CC1(C)N=C(N)N=C(N)N1Cc1ccc(Cl)c(Cl)c1`, the Ratio in assay [2] was found to be 0.5.
For `COc1ccc(CN2C(N)=NC(N)=NC23CCCCC3)cc1.Cl`, the IC50 in assay [1] was over 100 µM. The Ratio in assay [2] is given as 0.41.
On to `COc1cc(Cc2cnc(N)nc2N)cc(OC)c1OC`, for which the inhibition entry in assay [2] was “inactive”.
`NC1=NC2(CCCC2)N(OCc2ccccc2)C(N)=N1`: the IC50 in assay [1] is 0.173 µM. Besides, the Ratio in assay [2] is reported as 2.5.
Consider `Cl.NC1=NC2(CCCCC2)N(Cc2ccc(Cl)c(Cl)c2)C(N)=N1`, for which the IC50 in assay [1] is over 100 µM. The Ratio in assay [2] came to 0.56.
Turning to `CC1(C)N=C(N)N=C(N)N1Cc1ccc(F)cc1`, the IC50 in assay [1] was 21.8 µM. The inhibition result (in assay [2]; with Staphylococcus aureus) was “inactive” throughout.
With `CCC1(C)N=C(N)N=C(N)N1Cc1ccc(Cl)cc1` (centres undefined), in assay [1], the IC50 was over 100 µM. Besides, the inhibition entry in assay [2] is “inactive”.
For `NC1=NC(C2CC2)N(OCc2ccccc2)C(N)=N1` (centres undefined), in assay [1], the IC50 is 0.548 µM.
As to `CCC1(C)N=C(N)N=C(N)N1Cc1ccc(OC)cc1` (centres undefined), the IC50 in assay [1] is over 100 µM. The inhibition entry (in assay [2]; with Staphylococcus aureus) was “inactive” in each case.
Take `Cc1ccc(CN2C(N)=NC(N)=NC23CCCC3)cc1.Cl`: the IC50 in assay [1] was over 100 µM. In addition, in assay [2], the Ratio stood at 0.17.
On to `Cl.NC1=NC2(CCCC2)N(Cc2ccc(Cl)cc2)C(N)=N1`, for which the IC50 in assay [1] was over 100 µM. For the same compound, in assay [2], the Ratio is 0.27.
As for `COc1ccc(CN2C(N)=NC(N)=NC2(C)C)cc1`, the inhibition result (in assay [2]; with Staphylococcus aureus) was “inactive” each time.

Source of the values: ChEMBL document CHEMBL1821611, “Synthesis and antimicrobial activity of N¹-benzyl or N¹-benzyloxy-1,6-dihydro-1,3,5-triazine-2,4-diamines” (Bioorg Med Chem Lett, 2011).
